Assay results: PMC11724075, “Small-molecule-induced ERBB4 activation to treat heart failure” (Nature Communications, 2025)
Several values for one entry are separate records, joined by “and”; a condition that tells them apart may be missing. Equal values may be shown once.

Tests used:
HCFs = test: Bulk RNA sequencing and GSEA of human cardiac fibroblasts; type: cell-based; conditions: EF-1 32 µM, 16 h, log2-fold change >0, P adj <0.05
Procedure: iAMs were seeded at a density of 6 ×10^6 cells/mL in differentiation medium in 75-cm^2 cell culture flasks (Greiner Bio-One, 658175) and incubated for 9 days (d0 = day of seeding). HCF were seeded at a density of 3 × 10^6 cells/mL in fibroblast medium in 75-cm^2 cell culture flasks. […] Next, cells were lysed using 350 µL buffer RLT (Qiagen) supplemented with β-mercaptoethanol (100:1; Merck, 444203). Total RNA was isolated using the RNeasy Micro Kit (Qiagen, 74104) according to the manufacturer’s protocol, with an extra step of DNase digestion. The concentration and quality of RNA were determined using a Qubit fluorometer (Thermo Fisher Scientific) and 2100 Agilent BioAnalyzer (Agilent Technologies), respectively. Samples with an RNA integrity number >7 were used for library preparation. Sequencing libraries were prepared by Genewiz/Azenta (Leipzig) on cDNA prepared from polyadenylated mRNA. Libraries were sequenced using a NovaSeq 6000 (Illumina) with a read length of 2 ×150 bp.
Gene expression was quantified at the transcript level using Salmon (v1.10.0)[60], with the validatMappings and -gcBias parameters switched on, to the Rnor_6.0 or GRCh38 transcriptome. […] Functional enrichment of DEGs was determined using a hypergeometric test against the Gene Ontology database by using the ClueGO (v2.5.7)[64] module of Cytoscape (v3.9.1)[65] with Benjamini–Hochberg adjusted (FDR) P < 0.05. […]

iAMs = test: EdU proliferation assay in proliferating iAMs; type: cell-based, rat; conditions: for EdU-positive nuclei compared to the vehicle group (in words): EF-1 32 µM or NRG1 0.1 µM, 24 h; for In vitro EdU-positive cell count: individual replicates
Procedure: EdU proliferation assay was performed using the Click-iT^TM EdU Cell Proliferation Kit for Imaging (ThermoFisher Scientific, C10337) following the protocol. Proliferating iAMs were seeded at a density of 10^5 cells/well in proliferating medium in 24-well plates and incubated overnight. […] Afterwards, the cell culture media were then replaced with 10 µM EdU in proliferating medium and incubated for 24 h at 37 °C. Next, iAMs were fixed with 4% PFA for 30 min at 4 °C. Cells were washed thrice with PBS, permeabilized by incubation with 0.1% Triton X-100 for 10 min at RT and counterstained with DAPI. Images were obtained by fluorescence microscopy (Celena S).

mouse model of MI = test: Mouse model of MI, histology: CSA, capillaries, interstitial fibrosis, scar size; type: in vivo
Procedure: Twelve-week-old female and male Balb/cJ (Charles River, 000651) mice were randomized into either the ctrl or MI group. Mice in the MI group underwent surgical ligation of the LAD, while mice in the ctrl group underwent a sham procedure (n = 8 female mice, n = 10 male mice). Briefly, all mice received an injection of 0.1 mg/kg buprenorphine (Produlab Pharma) before induction of anesthesia with 8% sevoflurane (Zoetis). Anesthesia was maintained with 4.5% sevoflurane and mice were intubated and ventilated. An incision of 15 mm was made on the left side of the thorax and the thoracic cavity was opened at the third intercostal space using blunt forceps. The LAD was permanently ligated with a 8/0 polypropylene monofilament sutures (Ethicon, F1894) after which the thoracic cavity and skin were closed with 6/0 polypropylene monofilament sutures (Ethicon, F1841). and 5/0 polyamide 6 sutures (Ethilon, F2412H), respectively. Mice received another dose of 0.1 mg/kg buprenorphine 6–8 h after the initial dose. Two days after surgery, cardiac ultrasound was performed to exclude mice without successful MI (i.e. displaying hypokinesia in ≥2 out of 5 segments). […] Cardiac ultrasound was performed weekly. After 4 weeks of treatment, mice were euthanized, and hearts were collected.
Hearts were fixed in 4% PFA, paraffin-embedded, and cut into 5-µm sections. Images were acquired with an Olympus BX43 microscope (Olympus Stream Motion Software) or a CELENA® S Digital Imaging System and analyzed with ImageJ 2.14.0 software. Collagen distribution was visualized by Masson’s trichrome staining. Cardiac total fibrosis was expressed as the ratio of positively stained fibrotic area (blue) to the total area and perivascular fibrosis as the ratio of fibrotic area to vascular lumen area. Scar size was determined by measuring the scar length over the […]. Hypertrophy and vascularisation were visualized via an isolectin-B4/WGA/DAPI staining. Quantification was performed by a person blinded to the treatment protocol.

[1] = MI experiment, female mice, MI/EF-1

## O=C(NC1CC1)C(Sc1nc2ccccc2c(=O)n1C1CCCC1)c1ccccc1 (stereo not drawn) [EF-1]
HCFs
  number of significantly downregulated genes compared to Veh: 507
  number of significantly upregulated genes compared to Veh: 336
iAMs
  EdU-positive nuclei compared to the vehicle group (in words): significant decrease in EdU-positive nuclei
  In vitro EdU-positive cell count: 0.7127 and 0.7822 and 0.8185 and 0.7982 and 0.7621
Mouse model of MI; [1]
  capillary density (#cap./100 CMs): 126.379 #cap./100 CMs and 126.085 #cap./100 CMs and 117.771 #cap./100 CMs and 154.255 #cap./100 CMs and 147.06 #cap./100 CMs and 123.257 #cap./100 CMs and 102.661 #cap./100 CMs
  capillary density (#cap./area): 2.749 #cap./area and 3.344 #cap./area and 2.607 #cap./area and 4.068 #cap./area and 3.029 #cap./area and 3.536 #cap./area and 2.904 #cap./area
Mouse model of MI; both male and female mice
  cardiomyocyte cross-sectional area in MI/EF-1 group (in words): significant increase in cross-sectional area
Mouse model of MI; female mice
  interstitial fibrosis in the remote myocardium of the infarcted hearts (in words): significantly lower
  number of capillaries per area (µm²) of the heart in MI/EF-1 group (in words): marked decrease in number of capillaries per area
Mouse model of MI; female or male mice
  scar size (in words): did not affect scar size

## neuregulin-1 [NRG1]
iAMs
  EdU-positive nuclei compared to the vehicle group (in words): significant decrease in EdU-positive nuclei
  In vitro EdU-positive cell count: 0.7207 and 0.8932 and 0.8227 and 0.7581 and 0.7231
